{"source": "patent US20240024379A1", "about": "“EXTRACT OF BACTERIA OF THE GENUS SPHINGOMONAS” (L’OREAL, priority 2020, published 2024)", "type_in_all_cases": "cell-based", "key": {"Claudin 1": {"system": "Claudin 1", "assay": "Gene expression by RT-qPCR in normal human epidermal keratinocytes, Claudin 1", "conditions": "NHEK, 24 hours; 1.00E−07 M, DMSO", "procedure": "(§1) Normal human epidermal keratinocytes (NHEK) have been sown in 48-well culture plates and then cultured in a culture medium for 3 days at 37° C. and 5% of CO2 with a renewal of the culture medium after first 24 hours of culture. At the end of the incubation, the culture medium has been replaced with a test medium (supplemented with 1.5 mM of CaCl2)) containing no (control) or containing the compounds to be tested, and the cells has then been incubated for 24 hours. All conditions have been carried out in duplicate. At the end of the treatments, the culture media have been eliminated and the cells have been rinsed twice with PBS (without CaCl2, without MgCl2). Afterwards, the total RNA has been isolated using an extraction kit. The quantification of RNA and its quality control have been analyzed by means of Labchip GX (Perkin Elmer). The expression of the selected transcripts has been analyzed by quantitative PCR in two steps. First of all, the cDNAs have been transcribed in the opposite direction from the RNAs. Afterwards, the quantitative PCR experiments have been carried out using a real-time PCR system. […] The RNAs are extracted, quantified and their quality is checked before performing their reverse transcription into cDNA. Finally, an RT-qPCR is carried out for each experimental condition in order to quantify the expression of the set of selected genes."}, "Cornifelin": {"system": "Cornifelin", "assay": "Gene expression by RT-qPCR in normal human epidermal keratinocytes, Cornifelin", "conditions": "NHEK, 24 hours; 1.00E−07 M, DMSO", "procedure": "as §1"}, "Zonula Occludens-1": {"system": "Zonula Occludens-1", "assay": "Gene expression by RT-qPCR in normal human epidermal keratinocytes, Zonula Occludens-1", "conditions": "NHEK, 24 hours; 1.00E−07 M, DMSO", "procedure": "as §1"}, "hTLR2": {"biological_target": "T1, hTLR2 (Homo sapiens, UniProt O60603)", "T1 construct": "host or cells: HEK-293", "T1 sequence (O60603 21-784)": "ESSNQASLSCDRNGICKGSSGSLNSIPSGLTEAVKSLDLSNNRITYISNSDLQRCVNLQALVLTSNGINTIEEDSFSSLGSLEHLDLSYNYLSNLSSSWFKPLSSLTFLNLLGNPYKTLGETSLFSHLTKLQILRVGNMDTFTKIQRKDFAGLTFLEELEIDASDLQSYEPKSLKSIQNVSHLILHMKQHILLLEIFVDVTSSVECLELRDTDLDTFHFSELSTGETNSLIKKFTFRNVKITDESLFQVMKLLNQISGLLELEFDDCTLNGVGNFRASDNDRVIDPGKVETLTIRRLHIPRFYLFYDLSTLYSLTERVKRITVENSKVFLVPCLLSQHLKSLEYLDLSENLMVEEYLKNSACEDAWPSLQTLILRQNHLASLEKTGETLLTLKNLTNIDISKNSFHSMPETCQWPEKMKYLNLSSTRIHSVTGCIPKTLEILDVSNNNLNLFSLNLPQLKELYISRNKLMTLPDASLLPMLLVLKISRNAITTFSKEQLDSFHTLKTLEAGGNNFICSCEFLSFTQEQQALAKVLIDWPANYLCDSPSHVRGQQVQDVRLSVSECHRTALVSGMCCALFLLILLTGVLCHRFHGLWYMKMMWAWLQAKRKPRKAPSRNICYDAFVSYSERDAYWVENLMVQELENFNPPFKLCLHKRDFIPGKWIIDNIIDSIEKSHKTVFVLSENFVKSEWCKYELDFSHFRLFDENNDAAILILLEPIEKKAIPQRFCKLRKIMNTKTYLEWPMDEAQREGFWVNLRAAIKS", "assay": "TLR reporter (SEAP/NFkB) test on HEK293 cell line with hTLR2", "procedure": "(§2) The extract and the controls are tested in duplicate on recombinant HEK-293 cell lines. These cell lines functionally over-express human TLR proteins as well as a reporter gene that is a secreted alkaline phosphatase (SEAP). The production of this reporter gene is governed by an NFkB inducible promoter. The results of activation of the TLR reporters are given in the form of optical density (OD) values.\n(§3) CU-T12-9 and FSL-1 are used on the cells expressing hTLR2 to respectively assess the TLR1/TLR2 and TLR2/TLR6 activities.\n(§4) […] CU-T12-9 is tested at 200 nM and 300 nM.\n(§5) 20 μl of the extract have been used to stimulate the reporter hTLR cell line in 200 μl of reaction volume. For the dose-response on the HEK-Blue-hTLR5 cell lines, the liquid extract obtained according to Example 1 has been tested in duplicate, at the following concentrations: 1000 μg/ml, 500 μg/ml, 250 μg/ml, 125 μg/ml, 62.5 μg/ml, 31.5 μg/ml. For the TLR1/2 and/or TLR2/6 specificity, the liquid extract obtained according to Example 1 has been tested in duplicate at the following concentrations: 100 μg/ml, 30 μg/ml and 10 μg/ml."}, "hTLR2-1": {"biological_target": "T2, hTLR2-1 (Homo sapiens, UniProt O60603+Q15399)", "T2 construct": "host or cells: HEK-293", "T2 sequence (O60603 21-784)": "as above", "T2 sequence (Q15399 25-786)": "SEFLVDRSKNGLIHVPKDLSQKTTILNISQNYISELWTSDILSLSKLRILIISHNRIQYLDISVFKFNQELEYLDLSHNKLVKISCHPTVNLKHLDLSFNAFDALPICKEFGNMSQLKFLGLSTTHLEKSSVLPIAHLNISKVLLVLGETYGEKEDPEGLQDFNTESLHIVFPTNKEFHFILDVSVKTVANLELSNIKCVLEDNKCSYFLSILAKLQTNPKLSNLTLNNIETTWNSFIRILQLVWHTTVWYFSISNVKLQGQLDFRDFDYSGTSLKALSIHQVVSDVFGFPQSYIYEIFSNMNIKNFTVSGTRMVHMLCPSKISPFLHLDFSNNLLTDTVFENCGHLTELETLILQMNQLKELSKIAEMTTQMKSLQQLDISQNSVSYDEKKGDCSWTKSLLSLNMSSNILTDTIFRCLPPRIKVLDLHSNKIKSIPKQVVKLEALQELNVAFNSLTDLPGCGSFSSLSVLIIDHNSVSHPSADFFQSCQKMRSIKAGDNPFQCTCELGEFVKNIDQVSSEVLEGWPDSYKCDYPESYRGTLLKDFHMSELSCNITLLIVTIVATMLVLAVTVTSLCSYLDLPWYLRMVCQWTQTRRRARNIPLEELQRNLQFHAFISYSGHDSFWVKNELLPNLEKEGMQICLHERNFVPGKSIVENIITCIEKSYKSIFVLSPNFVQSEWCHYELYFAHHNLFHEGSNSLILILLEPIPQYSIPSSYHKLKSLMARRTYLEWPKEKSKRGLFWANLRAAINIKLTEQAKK", "assay": "TLR reporter (SEAP/NFkB) test on HEK293 cell line with hTLR2-1", "procedure": "as §2, §3, §4\n20 μl of the extract have been used to stimulate the reporter hTLR cell line in 200 μl of reaction volume. For the dose-response on the HEK-Blue-hTLR5 cell lines, the liquid extract obtained according to Example 1 has been tested in duplicate, at the following concentrations: 1000 μg/ml, 500 μg/ml, 250 μg/ml, 125 μg/ml, 62.5 μg/ml, 31.5 μg/ml. […]"}, "hTLR2-6": {"biological_target": "T3, hTLR2-6 (Homo sapiens, UniProt O60603+Q9Y2C9)", "T3 construct": "host or cells: HEK-293", "T3 sequence (O60603 21-784)": "as the sequence (O60603 21-784) above", "T3 sequence (Q9Y2C9 32-796)": "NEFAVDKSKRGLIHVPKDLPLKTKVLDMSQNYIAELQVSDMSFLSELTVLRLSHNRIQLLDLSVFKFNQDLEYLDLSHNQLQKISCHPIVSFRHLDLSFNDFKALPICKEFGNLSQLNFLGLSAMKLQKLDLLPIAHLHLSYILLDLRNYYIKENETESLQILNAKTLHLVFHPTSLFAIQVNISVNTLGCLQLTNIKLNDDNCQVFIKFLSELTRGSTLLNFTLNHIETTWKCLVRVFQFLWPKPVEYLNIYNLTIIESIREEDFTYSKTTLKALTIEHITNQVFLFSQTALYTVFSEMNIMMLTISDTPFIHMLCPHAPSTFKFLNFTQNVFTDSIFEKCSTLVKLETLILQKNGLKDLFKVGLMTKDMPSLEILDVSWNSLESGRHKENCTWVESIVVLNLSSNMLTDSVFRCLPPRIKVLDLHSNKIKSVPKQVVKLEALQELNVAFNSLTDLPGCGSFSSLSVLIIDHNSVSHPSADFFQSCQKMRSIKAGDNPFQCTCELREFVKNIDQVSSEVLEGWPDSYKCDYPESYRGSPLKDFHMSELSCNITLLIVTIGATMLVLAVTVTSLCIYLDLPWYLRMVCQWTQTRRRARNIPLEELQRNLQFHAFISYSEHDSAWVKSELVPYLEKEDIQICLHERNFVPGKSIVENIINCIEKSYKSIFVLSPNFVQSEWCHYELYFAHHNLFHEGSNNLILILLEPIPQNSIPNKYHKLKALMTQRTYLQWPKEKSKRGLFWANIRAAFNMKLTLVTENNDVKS", "assay": "TLR reporter (SEAP/NFkB) test on HEK293 cell line with hTLR2-6", "procedure": "as §2, §3, §4, §5"}, "[1]": {"system": "IgE production by human B lymphocytes", "assay": "IgE production by human B lymphocytes stimulated with anti-CD40 and IL-4, ELISA", "conditions": "Anti CD-40 10 μg/ml + IL-4 10 ng/ml, 14 days; for IgE: single replicates", "procedure": "In the study, the effect of the extract has been assessed on the IgE production by purified human B lymphocytes (isolation of the CD19^+ lymphocytes from mononuclear cells of the peripheral blood). More specifically, the IgE production has been induced by the stimulation of the B lymphocytes with the combination of anti-CD40 antibody and of IL-4. After 14 days of incubation, the amount of IgE released in the culture supernatants has been quantified using a specific ELISA kit. Concomitantly with the tested extract, 3 other molecules have also been assessed in this test. the reference standard CpG-ODN 2006 (a TLR9 ligand), as well as IFN-γ and PGE2 have been tested as reference compounds.\nThe B lymphocytes CD19^+ have been isolated, sown in 24-well plates and incubated over one night in the culture medium. Afterwards, the compounds to be tested, tested alone or in combination, and the reference compounds have been added, or not (controls), and the cells have been pre-incubated for 2 hours. Afterwards, the inducer (a CD40+IL-4 combination) has been added, or not (unstimulated control) and the treatments with the test or the reference compounds have been repeated. Afterwards, the cells have been incubated for 14 days at a final density of 1.7×10^6 cells/ml). […]\nThe amount of IgE released in the culture supernatants has been measured using a specific ELISA kit according to the instructions of the supplier."}}, "note": "“And” between values parts separate entries of the source, which are not always exact repeats. Identical values can stand only once."}
{"molecule": "CC1=C(/C=C/C(C)=C/C=C/C(C)=C/CO)C(C)(C)CCC1", "note": "[Retinol]", "values": [{"measurement": "Average expression of the genes, Claudin 1", "setting": "Claudin 1", "value": 0.63}, {"measurement": "Average expression of the genes, Cornifelin", "setting": "Cornifelin", "value": 0.77}, {"measurement": "Average expression of the genes, Zonula Occludens-1", "setting": "Zonula Occludens-1", "value": 1.61}]}
{"molecule": "FSL1", "values": [{"measurement": "DO", "setting": "hTLR2; 10 pg/ml", "value": 1.727}, {"measurement": "DO", "setting": "hTLR2; 30 pg/ml", "value": 2.174}, {"measurement": "DO", "setting": "hTLR2-1; 10 pg/ml", "value": 0.027}, {"measurement": "DO", "setting": "hTLR2-1; 30 pg/ml", "value": 0.013}, {"measurement": "DO", "setting": "hTLR2-6; 10 pg/ml", "value": 1.373}, {"measurement": "DO", "setting": "hTLR2-6; 30 pg/ml", "value": 2.047}]}
{"molecule": "IFN-γ: reference compound, R&D Systems, ref. 285-IF-100/CF", "values": [{"measurement": "IgE % of the stimulated control", "setting": "[1]; 10 ng/ml", "value": 20, "unit": "%"}, {"measurement": "IgE Mean", "setting": "[1]; 10 ng/ml", "value": 738, "unit": "pg/mL"}, {"measurement": "IgE", "setting": "[1]; 10 ng/ml", "value": "1012 pg/mL and 166 pg/mL and 1036 pg/mL"}]}
{"molecule": "CpG-ODN 2006", "values": [{"measurement": "IgE % of the stimulated control", "setting": "[1]; 3 μM", "value": "<3", "unit": "%"}, {"measurement": "IgE Mean", "setting": "[1]; 3 μM", "value": "<123", "unit": "pg/mL"}, {"measurement": "IgE % of the stimulated control", "setting": "[1]; 3 μM, listed as CpG-ODN2006", "value": "< 3", "unit": "%"}, {"measurement": "IgE", "setting": "[1]; 3 μM", "value": "<123", "unit": "pg/mL"}]}
{"molecule": "CNc1ccc([N+](=O)[O-])cc1-n1cnc(-c2ccc(C(F)(F)F)cc2)c1", "note": "[CUT12-9]", "values": [{"measurement": "DO", "setting": "hTLR2; 200 nM", "value": 3.066}, {"measurement": "DO", "setting": "hTLR2; 300 nM", "value": 3.227}, {"measurement": "DO", "setting": "hTLR2-1; 200 nM", "value": 1.474}, {"measurement": "DO", "setting": "hTLR2-1; 300 nM", "value": 1.667}, {"measurement": "DO", "setting": "hTLR2-6; 200 nM", "value": 0.029}, {"measurement": "DO", "setting": "hTLR2-6; 300 nM", "value": 0.024}]}
{"molecule": "CCCCC[C@H](O)/C=C/[C@H]1[C@H](O)CC(=O)[C@@H]1C/C=C\\CCCC(=O)O", "note": "[PGE2]", "values": [{"measurement": "IgE % of the stimulated control", "setting": "[1]; 1 μM", "value": 58, "unit": "%"}, {"measurement": "IgE Mean", "setting": "[1]; 1 μM", "value": 2126, "unit": "pg/mL"}, {"measurement": "IgE", "setting": "[1]; 1 μM", "value": "2942 pg/mL and 1495 pg/mL and 1941 pg/mL"}]}
